Experimental data from patent US9586962B2, “Disubstituted octahydropyrrolo [3,4-C] pyrroles as orexin receptor modulators” (Janssen Pharmaceutica NV, priority 2011, dated 2017).

Target: human orexin 2 receptor (Homo sapiens (Human), UniProt O43614)
Test: Human orexin 2 receptor radioligand binding ([3H]EMPA competition, HEK293 cells)
Conditions: HEK293 cells expressing human orexin-2 receptor, read-out: OR 2 Ki

Chain of human orexin 2 receptor (O43614 whole entry): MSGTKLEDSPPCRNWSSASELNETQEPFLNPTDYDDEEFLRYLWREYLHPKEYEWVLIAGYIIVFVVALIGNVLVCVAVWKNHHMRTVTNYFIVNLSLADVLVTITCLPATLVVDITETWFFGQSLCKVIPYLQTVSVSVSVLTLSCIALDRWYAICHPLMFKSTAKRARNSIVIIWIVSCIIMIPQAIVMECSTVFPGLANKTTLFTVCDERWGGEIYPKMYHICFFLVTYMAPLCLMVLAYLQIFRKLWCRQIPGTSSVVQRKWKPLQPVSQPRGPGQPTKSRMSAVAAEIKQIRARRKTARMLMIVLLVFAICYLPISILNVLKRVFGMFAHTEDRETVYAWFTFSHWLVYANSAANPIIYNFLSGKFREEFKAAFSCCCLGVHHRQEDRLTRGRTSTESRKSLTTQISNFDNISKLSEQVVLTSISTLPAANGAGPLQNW

Row | Ki [nM] | Compound
1 | 164 | Cc1nc(N(C)C)cc(N2CC3CN(C(=O)c4cccc(F)c4-n4nccn4)CC3C2)n1 (stereo not shown) [Example 416, 6-[5-{[3-Fluoro-2-(2H-1,2,3-triazol-2-yl)phenyl]carbonyl}hexahydropyrrolo[3,4-c]pyrrol-2(1H)-yl]-N,N,2-trimethylpyrimidin-4-amine]
2 | 62 | Cc1nc(N(C)C)cc(N2CC3CN(C(=O)c4ccc(F)cc4-n4nccn4)CC3C2)n1 (stereo not shown) [Example 417, 6-[5-{[4-Fluoro-2-(2H-1,2,3-triazol-2-yl)phenyl]carbonyl}hexahydropyrrolo[3,4-c]pyrrol-2(1H)-yl]-N,N,2-trimethylpyrimidin-4-amine]
3 | 55 | Cc1nc(N(C)C)cc(N2CC3CN(C(=O)c4c(F)cccc4-n4nccn4)CC3C2)n1 (stereo not shown) [Example 418, 6-[5-{[2-Fluoro-6-(2H-1,2,3-triazol-2-yl)phenyl]carbonyl}hexahydropyrrolo[3,4-c]pyrrol-2(1H)-yl]-N,N,2-trimethylpyrimidin-4-amine]
4 | 1070 | CCCOc1ccc(C)nc1C(=O)N1CC2CN(c3nc(C)cc(C)n3)CC2C1 (stereo not shown) [Example 419, 2-(4,6-Dimethylpyrimidin-2-yl)-5-[(6-methyl-3-propoxypyridin-2-yl)carbonyl]octahydropyrrolo[3,4-c]pyrrole]
5 | 1350 | CCOc1ccc(C)nc1C(=O)N1CC2CN(c3cc(N(C)C)nc(C)n3)CC2C1 (stereo not shown) [Example 420, 6-{5-[(3-Ethoxy-6-methylpyridin-2-yl)carbonyl]hexahydro-pyrrolo[3,4-c]pyrrol-2(1H)-yl}-N,N,2-trimethylpyrimidin-4-amine]
6 | 108 | Cc1cc(C)nc(N2CC3CN(C(=O)c4nc(C)ccc4-c4ncccn4)CC3C2)n1 (stereo not shown) [Example 421, 2-(4,6-Dimethylpyrimidin-2-yl)-5-[(6-methyl-3-pyrimidin-2-ylpyridin-2-yl)carbonyl]octahydropyrrolo[3,4-c]pyrrole]
7 | 1050 | Cc1cc(C)nc(N2CC3CN(C(=O)c4nc(C)ccc4-c4ncc(C)o4)CC3C2)n1 (stereo not shown) [Example 422, 2-(4,6-Dimethylpyrimidin-2-yl)-5-{[6-methyl-3-(5-methyl-1,3-oxazol-2-yl)pyridin-2-yl]carbonyl}octahydropyrrolo[3,4-c]pyrrole]
8 | 182 | COc1ccc(-n2nccn2)c(C(=O)N2CC3CN(c4cc(N(C)C)nc(C)n4)CC3C2)c1 (stereo not shown) [Example 423, 6-[5-{[5-Methoxy-2-(2H-1,2,3-triazol-2-yl)phenyl]carbonyl}hexahydropyrrolo[3,4-c]pyrrol-2(1H)-yl]-N,N,2-trimethylpyrimidin-4-amine]
9 | 1160 | CCCOc1ccc(C)nc1C(=O)N1CC2CN(c3cc(N(C)C)nc(C)n3)CC2C1 (stereo not shown) [Example 424, N,N,2-Trimethyl-6-{5-[(6-methyl-3-propoxypyridin-2-yl)carbonyl]hexahydropyrrolo[3,4-c]pyrrol-2(1H)-yl}pyrimidin-4-amine]
10 | 85 | Cc1nc(N(C)C)cc(N2CC3CN(C(=O)c4cc(F)ccc4-c4ncccn4)CC3C2)n1 (stereo not shown) [Example 425, 6-{5-[(5-Fluoro-2-pyrimidin-2-ylphenyl)carbonyl]hexahydropyrrolo[3,4-c]pyrrol-2(1H)-yl}-N,N,2-trimethylpyrimidin-4-amine]
11 | 36 | Cc1nc(N(C)C)cc(N2CC3CN(C(=O)c4c(F)cccc4-c4ncccn4)CC3C2)n1 (stereo not shown) [Example 426, 6-{5-[(2-Fluoro-6-pyrimidin-2-ylphenyl)carbonyl]hexahydropyrrolo[3,4-c]pyrrol-2(1H)-yl}-N,N,2-trimethylpyrimidin-4-amine]
12 | 79 | Cc1nc(N(C)C)cc(N2CC3CN(C(=O)c4cccc(F)c4-c4ncccn4)CC3C2)n1 (stereo not shown) [Example 427, 6-{5-[(3-Fluoro-2-pyrimidin-2-ylphenyl)carbonyl]hexahydropyrrolo[3,4-c]pyrrol-2(1H)-yl}-N, N,2-trimethylpyrimidin-4-amine]
13 | 244 | Cc1ccc(-c2ncccn2)c(C(=O)N2CC3CN(c4cc(N(C)C)nc(C)n4)CC3C2)n1 (stereo not shown) [Example 428, N,N,2-Trimethyl-6-{5-[(6-methyl-3-pyrimidin-2-ylpyridin-2-yl)carbonyl]hexahydropyrrolo[3,4-c]pyrrol-2(1H)-yl}pyrimidin-4-amine]
